Data set [1] concerns thrombus formation in an arteriovenous shunt. The data set can be described thus: Arteriovenous shunt model (rat), antithrombotic action. The settings on record: oral dosage, read-out: ED50 [mg/kg] p.o. Type of data set: in vivo. How it is done: Fasting male rats (strain: HSD CPB:WU) having a weight of 200-250 g are anesthetized using a Rompun/Ketavet solution (12 mg/kg/50 mg/kg). Thrombus formation is induced in an arteriovenous shunt following the method described by Christopher N. Berry et al., Br. J. Pharmacol. (1994), 113, 1209-1214. For this, the left jugular vein and the right carotid artery are exposed. An extracorporeal shunt is arranged between the two vessels by means of a 10 cm long polyethylene tube (PE 60). This polyethylene tube was linked in the center to a further 3 cm long polyethylene tube (PE 160), which contained a nylon thread which was roughened and linked to a loop for the production of a thrombogenic surface. The extracorporeal circulation is maintained for 15 minutes. The shunt is then removed and the nylon thread with the thrombus is immediately weighed. The unloaded weight of the nylon thread had been determined before the start of the experiment. Before starting the extracorporeal circulation, test substances are administered to conscious animals either intravenously via the caudal vein or orally by means of stomach tube.

On to `O=C(NC[C@H]1CN(c2ccc(N3CCOCC3=O)cc2)C(=O)O1)c1ccc(Cl)s1` [Example 44, 5-Chloro-N-({(5S)-2-oxo-3-[4-(3-oxo-4-morpholinyl)phenyl]-1,3-oxazolidin-5-yl}methyl)-2-thiophenecarboxamide], for which the ED50 in data set [1] was found to be 3 mg/kg. On to `O=C(NC[C@H]1CN(c2ccc(N3CCCOC3=O)cc2)C(=O)O1)c1ccc(Cl)s1` [Example 255], for which the melting point (in general, the temperature of the solid-liquid transition) was 228 to 230 °C.

These data come from patent US20100160301A1, “MICROANGIOPATHY TREATMENT AND PREVENTION” (BAYER HEALTHCARE AG, priority 2005, published 2010).
